Data as given in publication PMC11269756, “A ligand discovery toolbox for the WWE domain family of human E3 ligases” (Communications Biology, 2024).
Where “and” joins values, the source holds several entries; their conditions need not be identical. Equal values may be shown once. Entries after “also recorded” stand apart in the source; their conditions may differ.

Assays:
Format in all cases: binding
DTX1 WWE domain = target: T1, DTX1 WWE domain (Homo sapiens, UniProt Q86Y01); test: 15N-HSQC NMR Kd titration, DTX1 WWE domains; conditions: 15N-HSQC-NMR titration, mean of selected cross peaks ± SD
T1 construct: DTX1 (Uniprot ID: Q86Y01, residues 21–184); His6-TEV site (N, cleaved yes); made in house; host or cells: E. coli BL21 (DE3) pRARE2
T1 sequence (Q86Y01 21-184): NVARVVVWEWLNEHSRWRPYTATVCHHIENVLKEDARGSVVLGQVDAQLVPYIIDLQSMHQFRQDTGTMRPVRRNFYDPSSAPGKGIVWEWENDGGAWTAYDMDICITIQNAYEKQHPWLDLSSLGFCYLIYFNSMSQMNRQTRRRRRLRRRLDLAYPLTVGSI
Text: (§1) Protein-observed NMR using isotopically labeled proteins has emerged as one of the most sensitive and widely employed methods for fragment-based screening. Our objective was to generate ^15N-labeled proteins of WWE domain family members, thereby enabling ^15N-HSQC NMR studies. This approach provides a protein-based fragment screening assay to identify and orthogonally validate binders for the WWE domain family proteins. We conducted NMR-based Kd determination assays for HUWE1, DTX1, RNF146, TRIP12, and DTX2 (Fig. 2c–f, Fig. S3). The small size of the WWE domain constructs (10–20 kDa) yielded NMR spectra with well-resolved individual peaks when analyzed on a 600 MHz spectrometer. This facilitated the determination of Kd values for ligands in the fast-exchange regime by monitoring chemical shift perturbations in the ligand titration. […] The adenosine-based ligands were titrated in the range of 62.5 µM to 2 mM for each WWE domain protein. However, due to resource intensive preparation, iso-ADPr was only titrated up to 500 µM. We then plotted the Δδ chemical shifts and ligand concentrations to determine a saturation curve. For each Kd determination, the chemical shifts of at least two separate peaks were analyzed and reported as the mean with standard deviation (Table 1, Figs. S4–7).
(§2) Titration curves were calculated as previously described.

HUWE1 WWE domain [1] = target: T2, HUWE1 WWE domain (Homo sapiens, UniProt Q7Z6Z7); test: 15N-HSQC NMR Kd titration, HUWE1 WWE domain; conditions: 15N-HSQC-NMR titration, mean of selected cross peaks ± SD
T2 construct: HUWE1 (Uniprot ID: Q7Z6Z7, residues 1611–1700); His6-TEV site (N, cleaved yes); made in house; host or cells: E. coli BL21 (DE3) pRARE2
T2 sequence (Q7Z6Z7 1611-1700): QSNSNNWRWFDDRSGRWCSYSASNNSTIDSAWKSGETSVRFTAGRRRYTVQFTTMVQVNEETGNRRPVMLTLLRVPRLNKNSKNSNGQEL
Text: as §1, §2
Compound hit confirmation was carried out in single compound samples using the same conditions and parameters as for compound mixtures.

RNF146 WWE domain = target: T3, RNF146 WWE domain (Homo sapiens, UniProt Q9NTX7); test: 15N-HSQC NMR Kd titration, RNF146 WWE domain; conditions: 15N-HSQC-NMR titration, mean of selected cross peaks ± SD
T3 construct: RNF146 (Uniprot ID: Q9NTX7, residues 100-184); His6-TEV site (N, cleaved yes); made in house; host or cells: E. coli BL21 (DE3) pRARE2
T3 sequence (Q9NTX7 100-184): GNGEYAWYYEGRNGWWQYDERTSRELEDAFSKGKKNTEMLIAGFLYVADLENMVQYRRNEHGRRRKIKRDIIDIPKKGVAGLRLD

DTX2 WWE domain [2] = target: T4, DTX2 WWE domain (Homo sapiens, UniProt Q86UW9); test: 15N-HSQC NMR Kd titration, DTX2 WWE domains; conditions: 15N-HSQC-NMR titration, mean of selected cross peaks ± SD
T4 construct: DTX2 (Uniprot ID: Q86UW9, residues 3–189); His6-TEV site (N, cleaved yes); made in house; host or cells: E. coli BL21 (DE3) pRARE2
T4 sequence (Q86UW9 3-189): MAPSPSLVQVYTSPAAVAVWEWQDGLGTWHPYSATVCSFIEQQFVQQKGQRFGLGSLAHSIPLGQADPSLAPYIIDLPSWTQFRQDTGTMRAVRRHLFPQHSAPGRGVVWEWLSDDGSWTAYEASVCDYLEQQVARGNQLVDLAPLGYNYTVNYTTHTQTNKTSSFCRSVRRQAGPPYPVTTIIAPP
Text: as §1, §2

[3] = target: T5, TRIP12 WWE domain (isoform 2) (Homo sapiens, UniProt Q14669); test: 15N-HSQC NMR Kd titration, TRIP12 WWE domain; conditions: 15N-HSQC-NMR titration, mean of selected cross peaks ± SD
T5 construct: TRIP12-2 (Uniprot ID: Q14669, residues 759–847); His6-TEV site (N, cleaved yes); made in house; host or cells: E. coli BL21 (DE3) pRARE2
Text: as §1, §2

DTX2 WWE domain [4] = target: T4, DTX2 WWE domain; test: 19F NMR displacement assay with 2F-ATP (1) reporter, DTX2; conditions: 100 µM reporter, 0.5 µM protein, competitor up to 1 mM
HUWE1 WWE domain [5] = target: T2, HUWE1 WWE domain; test: 19F NMR displacement assay with 2F-ATP (1) reporter, HUWE1; conditions: 100 µM reporter, 0.5 µM protein, competitor up to 1 mM

T5 sequence (Q14669 with tags, fused parts or gaps): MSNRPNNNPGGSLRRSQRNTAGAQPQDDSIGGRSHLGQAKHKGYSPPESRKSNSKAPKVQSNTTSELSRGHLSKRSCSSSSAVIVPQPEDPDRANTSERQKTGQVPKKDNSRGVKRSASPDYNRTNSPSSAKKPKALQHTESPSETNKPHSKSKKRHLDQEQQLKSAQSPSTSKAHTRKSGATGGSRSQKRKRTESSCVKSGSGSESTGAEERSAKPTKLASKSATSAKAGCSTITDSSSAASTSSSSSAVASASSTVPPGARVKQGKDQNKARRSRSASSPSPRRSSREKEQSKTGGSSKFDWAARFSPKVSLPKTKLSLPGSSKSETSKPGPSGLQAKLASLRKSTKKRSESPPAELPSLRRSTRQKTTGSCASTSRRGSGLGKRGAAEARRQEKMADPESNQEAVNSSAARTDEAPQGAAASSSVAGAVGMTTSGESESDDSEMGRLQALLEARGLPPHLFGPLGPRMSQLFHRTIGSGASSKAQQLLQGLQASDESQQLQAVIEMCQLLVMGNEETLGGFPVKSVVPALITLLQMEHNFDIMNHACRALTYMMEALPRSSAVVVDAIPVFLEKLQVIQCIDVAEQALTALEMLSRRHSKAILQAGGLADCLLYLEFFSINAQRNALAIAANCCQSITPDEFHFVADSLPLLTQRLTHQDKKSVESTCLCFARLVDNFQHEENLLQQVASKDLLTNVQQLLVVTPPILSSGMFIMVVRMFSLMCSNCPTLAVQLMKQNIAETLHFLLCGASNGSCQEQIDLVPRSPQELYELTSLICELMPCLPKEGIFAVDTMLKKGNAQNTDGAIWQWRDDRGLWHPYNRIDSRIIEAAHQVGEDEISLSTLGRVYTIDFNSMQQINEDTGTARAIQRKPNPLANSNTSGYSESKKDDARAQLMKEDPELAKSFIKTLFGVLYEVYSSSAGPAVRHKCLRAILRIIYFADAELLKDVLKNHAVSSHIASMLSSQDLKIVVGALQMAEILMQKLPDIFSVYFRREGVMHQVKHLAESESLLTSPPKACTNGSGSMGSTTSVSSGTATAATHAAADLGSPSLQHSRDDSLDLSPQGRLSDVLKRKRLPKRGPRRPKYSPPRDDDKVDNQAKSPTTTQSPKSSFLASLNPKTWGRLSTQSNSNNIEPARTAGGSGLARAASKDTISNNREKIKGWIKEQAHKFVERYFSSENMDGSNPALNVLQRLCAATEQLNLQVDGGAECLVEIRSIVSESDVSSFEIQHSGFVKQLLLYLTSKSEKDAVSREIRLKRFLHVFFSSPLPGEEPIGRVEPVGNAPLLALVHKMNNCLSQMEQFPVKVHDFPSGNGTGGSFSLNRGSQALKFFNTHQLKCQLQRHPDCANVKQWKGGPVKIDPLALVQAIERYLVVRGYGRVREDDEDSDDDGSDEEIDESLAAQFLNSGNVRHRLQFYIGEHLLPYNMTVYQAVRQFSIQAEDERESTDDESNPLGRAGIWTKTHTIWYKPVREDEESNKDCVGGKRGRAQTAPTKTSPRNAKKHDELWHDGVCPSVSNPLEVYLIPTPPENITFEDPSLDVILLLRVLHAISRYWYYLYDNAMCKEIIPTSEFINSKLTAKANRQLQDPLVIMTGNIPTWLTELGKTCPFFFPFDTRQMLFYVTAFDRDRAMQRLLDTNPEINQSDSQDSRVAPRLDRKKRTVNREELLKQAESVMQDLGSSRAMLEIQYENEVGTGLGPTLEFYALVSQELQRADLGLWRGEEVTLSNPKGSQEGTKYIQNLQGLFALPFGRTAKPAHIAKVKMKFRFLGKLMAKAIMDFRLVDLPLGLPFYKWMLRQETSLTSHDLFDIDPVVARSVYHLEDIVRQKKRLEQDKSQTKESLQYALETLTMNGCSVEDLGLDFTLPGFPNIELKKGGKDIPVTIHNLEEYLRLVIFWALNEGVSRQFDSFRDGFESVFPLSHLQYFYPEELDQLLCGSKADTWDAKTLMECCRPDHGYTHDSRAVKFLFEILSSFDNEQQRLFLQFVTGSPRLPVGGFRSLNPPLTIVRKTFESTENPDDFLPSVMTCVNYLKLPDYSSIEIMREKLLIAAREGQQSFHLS

SMILES | Kd (DTX1 WWE domain) [µM] | Kd (HUWE1 WWE domain [1]) | Kd (RNF146 WWE domain) [µM] | Kd (DTX2 WWE domain [2]) [µM] | Kd [3] [µM] | displacement of 19F reporter 2F-ATP (1) (DTX2 WWE domain [4]) | displacement of 19F reporter 2F-ATP (1) (HUWE1 WWE domain [5])
Nc1nc(F)nc2c1ncn2[C@@H]1O[C@H](COP(=O)(O)OP(=O)(O)OP(=O)(O)O)[C@@H](O)[C@H]1O [2F-ATP 1] | 329 ± 115 | 30 µM and 27 µM | 49 ± 18 | > 2000 | 127 ± 9 |  | 
Nc1ncnc2c1ncn2[C@@H]1O[C@H](COP(=O)(O)OP(=O)(O)OP(=O)(O)O)[C@@H](O)[C@H]1F [2’F-ATP 2] | 550 ± 111 | 15 ± 2 µM | 114 ± 31 | 455 ± 17 | 125 ± 20 |  | 
Nc1ncnc2c1ncn2[C@@H]1O[C@H](COP(=O)(O)OP(=O)(O)OP(=O)(O)O)[C@@H](O)[C@H]1O [ATP] | 659 ± 294 | 59 ± 5 µM |  | 802 ± 84 | 316 ± 22 | too weak for displacement | increasing signal intensity
O=C(O)CN1C(=O)c2ccccc2C1=O [compound (3), N-(Carboxymethyl)-phthalimide] |  | 1760 µM |  |  |  |  | no displacement
O=C(O)CN1C(=O)c2ccc(C(=O)O)cc2C1=O [compound (4)] |  | 202 µM |  |  |  |  | clear dose-dependent displacement; also recorded: showed displacement
